For data set [1], the system named is 4T1 cells. The experiment in a line: RNA sequencing of 4T1 cells in vitro (Example 4). Type of data set: cell-based, mouse. The settings on record: without supplemental Gas6.
The test system of data set [2] is 4T1 mammary carcinoma cells. In words: Metastasis, tumor weight and spleen weight post sacrifice, 4T1 model (Example 1). Type of data set: in vivo, BALB/c mice. The settings on record: for Lung macro metastasis: count per animal (A1-A15) after sacrifice, 10+ = massive lung metastasis; for Average spleen weight / Average tumor weight: post sacrifice, average of each group. As for the experimental part: Spleens were weighed and inspected for macroscopic metastasis and cut in half along the long axis. Half of the spleen was snap frozen, with the other half fixed in 4% formalin for 24 hours at room temperature and stored in 70% ethanol at 4° C. until embedding in paraffin.
Livers were inspected for macroscopic metastasis and fixed in 4% formalin for 24 hours at room temperature and stored in 70% ethanol at 4° C. until embedding in paraffin.
Lungs were inspected for macroscopic metastasis and fixed in 4% formalin for 24 hours at room temperature and stored in 70% ethanol at 4° C. until embedding in paraffin.
Tumors were weighed and cut in half along the long axis, one half was snap frozen in liquid nitrogen in 2 cryotubes per tumor, while the other half was fixed in 4% formalin for 24 hours at room temperature and stored in 70% ethanol at 4° C. until embedding in paraffin.

The test system of data set [3] is 4T1 mammary carcinoma cells. In words: 4T1 syngeneic mammary carcinoma model, tumor growth and survival (Example 1). The settings on record: 4T1 model; for Effect on mouse survival: without the CPI treatment, 500 mm^3.
Text: Exponentially growing 4T1 mammary carcinoma cells were harvested and re-suspended at 4×10^6 per ml in the mixture of serum-free RPMI medium and Matrigel (1:1). Only cells with over 95% viability have been used for in vivo study.
Each animal was weighed before cell implantation. Mice were anesthetized by inhalation of Sevoflurane. Anesthesia was induced at 8% Sevoflurane and maintained at 4%. Every mouse was placed on a heating pad and appropriately marked. Under a suitable depth of unconsciousness, animals were shaved, and the skin and surrounding region washed with Chlorhexidine (1 mg/ml) with use of sterile gauze. Injection was done orthotopically with one tumor per mouse with 0.05 ml of approximately 2×10^5 4T1 cells in serum-free RPMI medium/Matrigel (1:1).
2 randomizations were performed on 150 mice in 30 cages, with 5 animals per cage. The first randomization was performed on day 11 post implantation. The average of tumor volume of animals in each cage was determined. The average tumor volume in the cages was from 3.8 mm^3 to 19.7 mm^3. […] The first randomization was conducted with Latin square method based on the average tumor volume of all animals in each cage. […] Once the average tumor size reached 70 mm^3 for vehicle treated animals and 76 mm^3 for bemcentinib treated animals (tumor volume=L×W×W/2) the second randomization was performed prior to injection of chemotherapeutic agent (doxorubicin) on day 16. Randomization 2 was conducted with Latin square method based on average tumor volume of all animals in the bemcentinib group and in the vehicle group from randomization 1. […]
Tumor growth was measured with a digital hand held caliper at least twice weekly (once tumor emerges), prior to the first dosing, and then on the day of euthanasia.
When tumors reached an average of 7-170 mm^3, each animal received Doxorubicin (Dox) at a concentration of 0.5 mg/ml (groups C,D,F and H) in a total volume of 50 ul×TV/120 as indicated in Table 1. […] Total drug dose was calculated based on each animal's individual tumor size. […]
A further data set deals with Type I IFN related genes. In words: RT2 Profiler PCR Array Mouse Type I Interferon Response on 4T1 tumors (Example 1 mechanistic study). Format: in vivo, BALB/c mice. Particulars: 4T1 tumors day 19; one animal per group compared to one of the controls. As for the experimental part: RNA was extracted from snap frozen tumors using the RNEasy Microarray Tissue Mini kit from Qiagen following the manufacturer's instructions. As tumors contained Doxorubicin and powderizing them could expose personnel to harmful substances, the RNA was extracted in a closed system using the GentleMACS dissociator and M Tubes. Purity and concentration of RNA was measured using Nanodrop. cDNA was synthesized from RNA using the RT2 First Strand kit (Qiagen) according to the manufacturer's instructions. cDNA was mixed with RT2 SYBR Green Mastermix (Qiagen) and loaded into RT^2 Profiler™ PCR Array Mouse Type I Interferon Response, to analyze the expression of the 84 genes listed in Table 2. The plates were analysed using a Light Cycler 480 (Roche) and data were analysed using the Qiagen Data Analysis Centre and Graph Pad (Prism).
16 animals were used in the mechanistic study and were sacrificed day 19 post implantation, 3 days after Doxorubicin injection. […] The 4 animals from group A (no treatment) were used as controls. The fold changes of 4 animals of group B (Bemcentinib), group F (Doxorubicin) and group H (Bemcentinib+Doxorubicin) are expressed as compared to the control animals (group A).

Another data set relates to 43 mouse cytokines. The experiment in a line: Plasma cytokines, ProcartaPlex Multiplex Immunoassay (Luminex) (Example 2). Format: in vivo, Balb/c mice. Particulars: 1 mg/kg doxorubicin i.t., 72 h post injection, 43 measured.
Another data set has as its system Yumm 1.7 cells. The experiment in a line: Metastasis, tumor weight and spleen weight, Yumm1.7 model (Example 3). Type of data set: in vivo, C57Bl6 mice. The settings on record: average on the day of sacrifice. As for the experimental part:
Spleens were weighed and prepared for Cytof (cut into pieces of 2 mm and frozen in FBS 90%, DMSO 10% and stored at −80° C. prior to dissociation).
Tumors were weighed and cut in 3 along the long axis, one third was snap frozen in liquid nitrogen in 2 cryotubes per tumor, another third was prepared for Cytof (Cut into pieces of 2 mm and frozen in FBS 90%, DMSO 10% and stored at −80C prior to dissociation). The last piece was fixed in 4% formalin for 24 hours at room temperature and stored in 70% ethanol at 4° C. until embedding in paraffin.

The subject of data set [4] is LL2 cells. In words: qRTPCR of IFN related genes in Lewis lung carcinoma (LL2) cells in vitro (Example 4). Format: cell-based, mouse. The settings on record: Doxorubicin 50 nM, 48 hours. As for the experimental part:
(§1) 4T1 cells (ATCC, CRL-2539) were cultured in RPMI-1640 (Sigma, Cat. #R8758) supplemented with 10% fetal bovine serum (FBS), L-glutamine (4 mM), streptomycin (5 μg/ml) and penicillin (5 U/ml). […] Lewis lung carcinoma cells LL/2 (LLC1) (ATCC, CRL-1642™) were cultured in Dulbecco's Modified Eagle's Medium ATCC® 30-2002™ (4 mM L-glutamine, 4500 mg/L glucose, 1 mM sodium pyruvate, and 1500 mg/L sodium bicarbonate).
RNA was extracted from snap frozen tumors using the RNEasy Microarray Tissue Mini kit from Qiagen following the manufacturer's instructions. As tumors contained Doxorubicin and powderizing them could expose personnel to harmful substances, the RNA was extracted in a closed system using the GentleMACS dissociator and M Tubes. Purity and concentration of RNA was measured using Nanodrop. RT^2 Profiler™ PCR Array. cDNA was synthesized from RNA using the RT^2 First Strand kit (Qiagen) according to the manufacturer's instructions. cDNA was mixed with RT^2 SYBR Green Mastermix (Qiagen) and loaded into RT^2 Profiler™ PCR Array Mouse Type I Interferon Response or RT^2 Profiler™ PCR Array Mouse Epithelial to Mesenchymal Transition (EMT), analyzing the expression of the genes listed in Table 17. The plates were analyzed using Light Cycler 480 (Roche) and data were analyzed using the Qiagen Data Analysis Centre and Graph Pad (Prism).
Chemotherapeutic agents commonly used to treat lung cancer patients were evaluated for effects on the IFN response. Cisplatin, navelbine and docetaxel were tested in vitro in combination with bemcentinib.
(§2) The IC50 of the different drugs were calculated by resazurin viability assay. […] The cells were treated for 48 hours.
(In qPCR the cycle at which signal appears reflects the starting amount.)

The conditions of data set [5]: mouse, in vivo. An excerpt:
Animals were weighed prior to tumor cell injection, prior to daily dosing and prior to euthanasia.

For data set [6], the system named is 4T1 mammary carcinoma cells. The experiment in a line: Tumor growth, 4T1 model (Example 2). Details: species or system Balb/c mice. The settings on record: short in vivo study, single i.t. injection day 15.
Experimental: Tumor growth was measured with a digital handheld caliper twice weekly from emergence of tumor and until the day of euthanasia
For data set [7], the system named is LL2 cells. In words: Resazurin viability assay of LL2 cells (Example 4). Format: cell-based, mouse. As for the experimental part:
as §1, §2
On the technique in general: Resazurin is reduced to fluorescent resorufin, in cell work by metabolically active cells.

Data set [8] concerns 4T1 cells. In words: qRTPCR of IFN related genes in 4T1 cells in vitro (Example 4). Type of data set: cell-based, mouse. Particulars: doxorubicin, 42 ISG measured.

“And” between values parts separate entries of the source, which are not always exact repeats. Identical values can stand only once. Like-named read-outs stand apart in the source and are kept apart here.

Experimental for 43 mouse cytokines: The manufacturer user guide was followed. The samples were analyzed by (MAGPIX) and the results were obtained as concentration in pg/ml of mouse plasma. At least 3 samples per group, 4 for many, were analyzed.

In the case of `Nc1nc(Nc2ccc3c(c2)CC[C@@H](N2CCCC2)CC3)nn1-c1cc2c(nn1)-c1ccccc1CCC2` [Bemcentinib, bemcentinib], the “IFN related gene expression by RNA sequencing” value in the data set on 4T1 cells [1] is recorded as “limited IFN type I response”. For the same compound, the Lung macro metastasis in data set [2] (listed as Bem + PBS + Igg) was 6 and 10+ (2×) and 5 (3×) and 0 and 4 and 2 and 10. In data set [2], this compound yielded an Average spleen weight of 0.9333 g and an Average tumor weight of 1.556 g. Also, the “Median survival (tumor volume 1000 mm^3)” value in data set [3] (days until tumor 1000 mm^3 or sacrifice due to severe symptoms) amounted to 34.5 days. For the same compound, in [3], the “Effect on mouse survival” value is “do not show any effect”. For the same compound, in the data set on Type I IFN related genes, the “Expression of IFN type I related genes” value is “only a few upregulated genes”. The “Cytokines with a significant decrease of concentration (number)” value in the data set on 43 mouse cytokines is 4. The compound also showed a Spleen weight with Yumm 1.7 cells of 0.10 g.
What is called IC50 is the concentration at which inhibition is half-maximal. With `COc1cccc2c1C(=O)c1c(O)c3c(c(O)c1C2=O)C[C@@](O)(C(=O)CO)C[C@@H]3O[C@H]1C[C@H](N)[C@H](O)[C@H](C)O1` [Doxorubicin, doxorubicin], the “ISG significantly upregulated compared to control (number)” value in the data set with LL2 cells [4] is recorded as “limited IFN response”. Besides, the Lung macro metastasis in data set [2] (listed as Vehicle + Dox + Igg) was 10+ (2×) and 6 and 3 and 0 (2×) and 4 (2×) and 5. For the same compound, the Average spleen weight in [2] was 1.16 g. In data set [2], this compound came in with an Average tumor weight of 1.51 g. In addition, in [3], the “Effect on mouse survival” value is “do not show any effect”. In addition, in the data set on Type I IFN related genes, the “Expression of IFN type I related genes” value is listed as “increase of expression”. For the same compound, in data set [5], the “Effect on the body weight of mice” value is on record as “limited effect”. Further, the Spleen weight in the data set on Yumm 1.7 cells is 0.17 g. Also, the Tumor growth result in [6] was “no effect”. For the same compound, the IC50 in the data set on LL2 cells [7] (Mus musculus, LL/2, read-out: IC50 without bem) was determined as 178 nM; in the data set with LL2 cells [7] (in the presence of bemcentinib, read-out: IC50 with bem), 70.3 nM. For the same compound, the “ISG with significant mRNA fold change upregulation compared to control (number)” value in the data set with 4T1 cells [8] is 9.

The values are drawn from patent US20230372337A1, “Combination Therapy Comprising an AXL Inhibitor” (BERGENBIO ASA, priority 2020, published 2023).
